According to the METLIN SMRT retention time set (Domingo-Almenara et al. 2019):

Experiment: gradient 5% acetonitrile 3 min, to 50% in 2 min, to 85% in 15 min, held 3 min, 100 µL/min
Settings: column: Zorbax Extend-C18 2.1 x 50 mm; eluents: water / acetonitrile, 0.1% formic acid
Outline: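 Mixtures of ~100 pure standards were chromatographed on a Zorbax Extend-C18 column (2.1 × 50 mm, 1.8 μm) at 100 μL/min using water and acetonitrile, each with 0.1% formic acid. Detection used a quadrupole time-of-flight mass spectrometer in positive and negative ionization mode, and data collection spanned 3 months. Retention time was obtained from adduct peaks picked computationally and each checked manually.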

RP-LC retention time | Compound
658 s | Cc1cccc(C)c1Nc1c(-c2ccc(O)cc2)nc2ncccn12
969 s | CCCn1cc(C(=O)NCC(=O)OC)c(S(=O)(=O)N2CCN(c3ccccc3OCC)CC2)n1
1070 s | O=c1c2sccc2n(Cc2nc(-c3ccc(F)cc3)no2)c(=O)n1-c1ccc(Cl)cc1
860 s | CCOc1ccccc1NC(=O)N1CCCC(C)(C(=O)NCc2ccccc2C)C1 (configuration not stated)
803 s | O=C(NC1CC1)c1ccc(OCC2CCCN(C(=O)c3ccc(F)cc3)C2)cc1 (configuration not stated)
660 s | COc1ccc(C2C(C(=O)N3CCCC3)c3cc(OC)c(OC)cc3C(=O)N2C)cc1OC (configuration not stated)
1130 s | O=C(NCc1ccc(N2CCCC2)cc1)c1sc2ncccc2c1-n1cccc1
583 s | Cc1ccc(-c2csc(NC(=O)CSc3nc4c(cc3C#N)C(=O)CCC4)n2)cc1
699 s | COC(=O)c1ncoc1-c1ccccc1C(=O)NC1CCCC1
596 s | COc1ccc(NC(=O)Cn2ncc3c(N4CCN(c5ccccn5)CC4)ncnc32)cc1
608 s | CN1C(=O)c2cccn2CC1C(=O)NCC1CC1 (configuration not stated)
1010 s | COc1ccc(OC)c(NC(=O)CSc2nccc(N3CCN(c4cc(C)ccc4C)CC3)n2)c1
606 s | CS(=O)(=O)N1CCN(C(=O)CCC2CCN(c3cc(NC4CC4)ncn3)CC2)CC1
737 s | CCOC(=O)c1[nH]c(C)c(CCC(=O)N2CCC(C(=O)N3CCCCC3)CC2)c1C
859 s | O=C(COc1ccccc1)Nc1nnc(SCC(=O)N2CCCc3ccccc32)s1
651 s | CCCCn1c(C(C)NC(=O)c2ccco2)nc2ccccc21 (configuration not stated)
749 s | CCc1ccccc1NS(=O)(=O)c1cc(-c2[nH]ncc2C(=O)N2CCCC2)oc1C
580 s | CC(=O)N1CCC(C2CCN(C(=O)CN3CCCC3=O)C2)CC1 (configuration not stated)
1200 s | Cn1c(C(=O)NC2CCCCCC2)cc2sc(Cl)cc21
703 s | COc1ccc(NC(=O)c2cn3c(n2)COCC3)cc1Cl
676 s | CC1CCCCN1S(=O)(=O)c1ccc2c(c1)CCC(=O)N2CC(=O)NCc1ccc(N(C)C)cc1 (configuration not stated)

RP-LC retention time | Compound
747 s | Cc1ccc(C)c(NC(=O)C2CCN(S(=O)(=O)c3cc(C(=O)N4CCCC4)n(C)c3)CC2)c1
1020 s | CCOC(=O)C(C)c1c(C(=O)c2ccc(C)nc2)c2ccccc2n1C (configuration not stated)
746 s | CC(C)n1cnc2ccc(-c3noc(-c4cccs4)n3)cc21
599 s | O=C(NCC(=O)N1CCc2ccccc21)c1ccc(=O)[nH]c1
630 s | CCc1ccc(S(=O)(=O)N2CC(COC)C3(CCNCC3)C2)cc1 (configuration not stated)
916 s | CCCN1C(=O)C(NC(=O)CCc2ccccc2)(C(F)(F)F)C(C(=O)OC)=C1C (configuration not stated)
793 s | c1ccc2c(-c3nnc(C4CC4)o3)nnc(NC3CCCCC3)c2c1
1050 s | COc1ccc(-n2ncc3c(=O)n(Cc4nc(-c5cccc(C)c5)no4)cnc32)cc1
742 s | CCc1ccc(NC(=O)Cn2c(C(C)C)nc3cc4c(cc32)OCCO4)cc1
1090 s | Cc1ccccc1-c1nc(C2CC(=O)N(c3ccc(Cl)cc3)C2)no1 (configuration not stated)
724 s | CCCn1c(C)cnc1C1CN(S(=O)(=O)c2ccc(Cl)c(Cl)c2)C1
799 s | O=C(c1c(F)cccc1F)N1CCN(S(=O)(=O)c2cc3c4c(c2)CCC(=O)N4CCC3)CC1
830 s | COc1ccc2nc(C(=O)NCc3ccccc3Cl)cn2n1
762 s | Cc1cnc(C(=O)NC2C[C@H]3CC[C@@H](C2)N3C(=O)CCC2CCCC2)cn1 (some centres not stated)
966 s | COc1ccccc1-c1nnc(-c2ccc(C)c(S(=O)(=O)N3CCCC3)c2)o1
1160 s | Cc1cccc(S(=O)(=O)N2CCc3nc(-c4ccccc4)ncc3C2)c1C
986 s | Cc1ccc2snc(C(=O)NC(C)C)c2c1
859 s | CC(=O)Nc1cccc(-c2nc(-c3ccc4nnn(C(C)C)c4c3)no2)c1
886 s | O=C(Cc1cccn1-c1ccc(Cl)cc1)NCc1ccc(N2CCOCC2)cc1
1230 s | O=C(c1ccc2c(c1)N(Cc1ccccc1)C(=O)CO2)N1CCN(c2ccccn2)CC1
639 s | O=C1CCN(C(=O)C2CCN(C(=O)c3cccs3)CC2)CCCCCCN1

RP-LC retention time | Compound
880 s | CCOc1ccccc1NC(=O)C1CCCN1S(=O)(=O)c1cc2c(cc1Cl)NC(=O)CO2 (configuration not stated)
602 s | O=C(N[C@H]1C[C@@H]2C[C@H]1N(C(=O)c1ccccc1Cl)C2)c1cccnc1
893 s | O=C(Nc1ccc(-c2nc3cccnc3s2)cc1)c1ccccc1Cl
816 s | CCOc1cc(-c2ccc(F)cc2)nc2ccc(NS(=O)(=O)c3cccc(C#N)c3)cc12
890 s | CC(C)OCCCNC(=O)C1CCN(S(=O)(=O)c2ccc(-c3noc(C4CC4)n3)cc2)CC1
768 s | CS(=O)(=O)N1CCC(OC2CCN(C(=O)Nc3ccccc3C(F)(F)F)CC2)CC1
810 s | O=C(Cn1c(=O)c(S(=O)(=O)c2ccccc2)cc2ccccc21)NCc1ccco1
532 s | Cc1nnc(NC(=O)CSc2nnc(-c3ccc(=O)n(C)c3)n2C)s1
1000 s | O=C(c1cc(-c2ccc(F)cc2)c[nH]1)N1CCc2ccccc21
1210 s | COCCOC(=O)C1=C(C)NC(C)=C(C(=O)OC/C=C/c2ccccc2)C1c1cccc([N+](=O)[O-])c1 (configuration not stated)
688 s | O=C(Nc1nccs1)C1CCCN(S(=O)(=O)c2c[nH]c(C(=O)N3CCCC3)c2)C1 (configuration not stated)
970 s | COC(=O)c1sccc1NC(=O)N1CCCn2nc(-c3ccc(OC)cc3)cc2C1
920 s | Cc1ccccc1-c1cn(CC(=O)NCc2ccc(F)c(Cl)c2)nc1N1CCOCC1
837 s | Cc1ccccc1-n1ccn(Cc2nc(-c3cccc(F)c3)no2)c(=O)c1=O
764 s | COc1cc(NC(=O)c2sc(-c3cn(C)c4ncccc34)nc2C)cc(OC)c1
647 s | O=C(NC1CCCC1)C1CCN(Cc2noc(-c3ccc(F)cc3)n2)CC1
742 s | Cn1nc(C(=O)N2CCC(C(=O)NC3CCCCCC3)CC2)c2c1CCN(C(=O)c1ccccc1)C2
788 s | Cc1ccc(-c2noc(C3CCCN3S(=O)(=O)c3ccc(C(C)(C)C)cc3)n2)cc1 (configuration not stated)
1030 s | O=C(NC1CCCC1)N1CCN(c2nc3cccnc3n(Cc3ccccc3)c2=O)CC1
631 s | COc1ccc(CCNc2nc3ccncc3n(C(C)C)c2=O)cc1OC
789 s | O=C(CN(c1ccc(F)cc1)S(=O)(=O)c1cccnc1)NCCc1ccccc1

RP-LC retention time | Compound
757 s | O=C(NCC1COc2ccccc2O1)C(=O)N1CCCCC1 (configuration not stated)
575 s | Cc1ncsc1CN1CC(n2cc(C(=O)NCC3CC3)nn2)C1
575 s | Cc1cc(N2CCN(C(=O)c3ccc(N(C)C)cc3)CC2)nc2nncn12
1180 s | CCOc1cccc(C2c3[nH]c4ccccc4c3CCN2C(=O)Cc2cccs2)c1 (configuration not stated)
1010 s | COc1ccc(-c2cnn3c(C)cc(C)nc23)cc1S(=O)(=O)NC(C)c1ccccc1 (configuration not stated)
740 s | CCC(C)NC(=O)Cn1c(=O)c2cnc(-c3ccc(Cl)cc3)nc2n(CC)c1=O (configuration not stated)
715 s | O=C(NCc1ccco1)C1CCN(c2nnc3ccc(C(F)(F)F)cn23)CC1
900 s | COc1ccc(-c2nnc(COc3ccc(NC(=O)Cc4cccs4)cc3)o2)cc1
795 s | CCn1cnc(S(=O)(=O)N2CCCC(C(=O)Nc3ccc(Cl)cc3C)C2)c1 (configuration not stated)
744 s | CCOc1ccc(-c2c(C)nn3c(C)c(C(=O)NCCCN4CCCC4=O)cnc23)cc1OCC
633 s | CCOC(=O)N1CCN(C(=O)C2CN(C(=O)c3c[nH]c4ccccc34)C2)CC1
766 s | CN(CCc1noc(-c2ccc(C(=O)N3CCOCC3)cc2)n1)C(=O)COc1ccc(Cl)cc1
830 s | COc1ccc(C(=O)Nc2nnc(SCc3nnc(-c4ccccc4)o3)s2)cc1OC
759 s | Cc1ccc(C)c(N2CCN(C(=O)c3cn4ccc(C)cc4n3)CC2)c1
787 s | CCC(C)NC(=O)N1CCCN(C2=NS(=O)(=O)C(c3ccc(F)cc3)=C2C)CC1 (configuration not stated)
937 s | CSc1ccccc1-c1nnc(NC(=O)c2cc(Cl)sc2Cl)o1
1150 s | O=C(CSc1nnc(-c2ccc(Br)cc2)o1)OCc1ccccc1
710 s | CN1CCC(C2CCN(S(=O)(=O)c3ccccc3Cl)C2)CC1 (configuration not stated)
790 s | COCCn1cc(CCNC(=O)Nc2ccc(C)cc2Cl)c2cccnc21
826 s | O=C(NC1CCN(c2ccccc2)C1=O)c1ccccc1C(F)(F)F (configuration not stated)
624 s | O=C1Nc2cc(C(=O)N3CCN(Cc4ccc5c(c4)OCO5)CC3)ccc2N2CCCCC12 (configuration not stated)

Compound | RP-LC retention time
O=P(Oc1ccccc1)(Oc1ccccc1)c1ccccc1 | 1070 s
Cc1nnc(-c2ccc3ccn(CC(=O)N4CCC5(CC4)OCCO5)c3c2)o1 | 673 s
COc1ccc2c(c1)C1(CCN(S(=O)(=O)c3ccc(NC(C)=O)cc3)C1)C(=O)N2 (configuration not stated) | 686 s
